Measurements published in article PMC6096483, “Structural studies of the unusual metal-ion site of the GH124 endoglucanase from Ruminiclostridium thermocellum” (Acta Crystallographica. Section F, Structural Biology …, 2018).

Molecular target: T1, RtGH124 (GH124 endoglucanase GH124A) (Acetivibrio thermocellus, UniProt A3DCJ4)
T1 construct: gene Cthe_0435; GH124 catalytic domain without dockerin; E. coli BL21(DE3)pLysS; N-terminal His6-3C tag cleaved, leaving GPA before […]; ends ...DRSNPWEIYY; 25304 Da calculated; His264 partially 2-oxohistidine
Assay: X-ray crystallography (co-crystallization, […] A)
Assay type: binding
Details: active site, two cellotrioses on either side of catalytic Glu203; Mn2+ at distant metal site; Tacsimate pH 5.0; 6.7 mM ligand

T1 sequence (A3DCJ4 entry or part of it): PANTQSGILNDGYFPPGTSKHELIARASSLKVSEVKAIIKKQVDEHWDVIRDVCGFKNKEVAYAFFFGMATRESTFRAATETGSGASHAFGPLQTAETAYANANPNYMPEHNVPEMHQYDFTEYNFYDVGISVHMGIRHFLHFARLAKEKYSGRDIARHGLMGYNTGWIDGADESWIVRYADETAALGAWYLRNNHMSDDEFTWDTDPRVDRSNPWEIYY

OC[C@H]1O[C@@H](O[C@H]2[C@H](O)[C@@H](O)[C@H](O[C@H]3[C@H](O)[C@@H](O)C(O)O[C@@H]3CO)O[C@@H]2CO)[C@H](O)[C@@H](O)[C@@H]1O (stereo partly shown) [G3, cellotriose]
X-ray crystallography (co-crystallization, 1.03 A): Structures of RtGH124 co-crystallized with cellotriose (G3) showed an active site with two cellotrioses
